Source: paper PMC9959265, “Permethrin as a Potential Furin Inhibitor through a Novel Non-Competitive Allosteric Inhibition” (Molecules, 2023)

Tests used:
Hep-G2 cells = test: Cellular cytotoxicity (CCK8), Hep-G2; assay type: cell-based, human; details: Hep-G2 (high furin expression), 24 or 48 h
Description: (§1) Furin is highly expressed in liver cancer cells and has specific effects on hepatocellular carcinoma. Therefore, human hepatocellular carcinoma cells Hep-G2 were selected as experimental cells, cervical carcinoma cells HeLa with similar furin expression in Hep-G2 were selected as control, and human permanent hepatocytes L-02 were selected as negative control. DMEM was used for HeLa, and 1640 medium was used for Hep-G2 and L-02. After incubation for 24 h with 100 μL complete medium in 96-well plates with 8000 cells per well, the medium was aspirated, 100 μL serum-free medium containing a concentration gradient of the compound was added and the samples were incubated. After 24 or 48 h the drug-containing medium was aspirated and 100 μL medium solution containing 10% CCK8 was added, subsequently, the absorbance was measured at 450 nm using a microplate reader after 1 h of incubation.

trypsin = test: Inhibition effect on trypsin (control protease); assay type: biochemical; details: Figure S1E
L-02 cells = test: Cellular cytotoxicity (CCK8), L-02; assay type: cell-based, human; details: L-02 normal liver cells (low furin expression), 24 or 48 h
Description: as §1

furin [1] = biological target: T1, furin (Homo sapiens, UniProt P09958)
T1 sequence (P09958 108-574 limits assumed): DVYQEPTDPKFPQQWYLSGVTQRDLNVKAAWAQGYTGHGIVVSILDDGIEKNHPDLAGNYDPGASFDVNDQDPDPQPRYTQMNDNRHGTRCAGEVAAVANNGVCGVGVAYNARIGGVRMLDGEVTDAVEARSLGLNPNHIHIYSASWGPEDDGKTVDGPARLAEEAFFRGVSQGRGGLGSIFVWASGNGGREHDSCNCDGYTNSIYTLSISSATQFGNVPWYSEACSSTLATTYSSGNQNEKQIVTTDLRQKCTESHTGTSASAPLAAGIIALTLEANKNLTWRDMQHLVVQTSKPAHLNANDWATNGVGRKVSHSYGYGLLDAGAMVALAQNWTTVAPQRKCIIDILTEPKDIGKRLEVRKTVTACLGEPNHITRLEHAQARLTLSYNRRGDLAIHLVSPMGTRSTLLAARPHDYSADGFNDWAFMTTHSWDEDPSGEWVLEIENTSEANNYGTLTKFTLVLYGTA
Description: For the measurement of enzymatic kinetics and inhibition kinetics, the substrate concentration gradients were set to 0 μM, 2 μM, 5 μM, 10 μM, 20 μM, 40 μM, 60 μM, 80 μM, 100 μM, 120 μM, and the compound concentration gradients to 0 μM, 25 μM, 50 μM, 100 μM. Furin was added to 100 mM HEPES assay system buffer (pH 6.0, containing 0.5% Triton X-100 and 5 mM CaCl2), followed by different concentrations of the compounds to be tested, preincubated at 37 °C for 5 min. Different concentrations of the substrate were added; the sample was incubated at 37 °C for 35 min, and quenched with 1% formic acid. The initial rate of the enzymatic reaction of furin was tested and the curve was plotted.

furin [2] = biological target: T1, furin; test: Furin activity / inhibitor screening assay with Boc-R-V-R-R-AMC substrate; assay type: biochemical; set-up: His tag; host or cells: E. coli BL21 (DE3)
Description: Boc-Arg-Val-Arg-Arg-AMC (Boc-R-V-R-R-AMC) was used as a substrate for the detection of furin. It carries an AMC ([…]) moiety that fluoresces at an excitation wavelength of 370 nm and an emission wavelength of 460 nm.
The reaction was then incubated for 90 min at 37 °C, supplemented with 40 μM substrate, quenched using 1% formic acid and the enzyme activity was monitored using a Thermo Scientific Varioskan Flash Multi-Mode Microplate Reader.

HeLa cells = test: Cellular cytotoxicity (CCK8), HeLa; assay type: cell-based; details: HeLa (high furin expression), 24 or 48 h
Description: as §1

**Q.** Which results are given for `CC1(C)C(C=C(Cl)Cl)C1C(=O)OCc1cccc(Oc2ccccc2)c1` (stereo not drawn) [YJJ-B0887, permethrin]?
**A.** cytotoxic effect (Hep-G2 cells): stronger cytotoxic effect; inhibitory activity against trypsin (trypsin): to neither enzyme, permethrin has inhibitory activity; cytotoxic effect (L-02 cells): much weaker; mode of inhibition (furin [1]): non-competitive inhibitor; Km of furin on addition of inhibitor (furin [1]; permethrin 0, 25, 50, 100 μM): does not change; maximum reaction rate of furin on addition of inhibitor (furin [1]; permethrin 0, 25, 50, 100 μM): decreases; inhibition at 50 µM (furin [2]; 50 μM compound, read-out: Inhibition Rate (50 μM)): 55.9%; IC50 (furin [2]; furin, 40 μM Boc-R-V-R-R-AMC, pH 6.0, 37 °C): 38.7 µM; cytotoxic effect (HeLa cells): higher cytotoxic effect
